Consider four molecules from ChEMBL document CHEMBL1156029, “The discovery of thienopyridine analogues as potent IkappaB kinase beta inhibitors. Part II” (Bioorg Med Chem Lett, 2009).

The target of one data set is T1, Ephrin type-A receptor 3 (Homo sapiens, UniProt P29320).
T1 sequence (P29320 whole entry): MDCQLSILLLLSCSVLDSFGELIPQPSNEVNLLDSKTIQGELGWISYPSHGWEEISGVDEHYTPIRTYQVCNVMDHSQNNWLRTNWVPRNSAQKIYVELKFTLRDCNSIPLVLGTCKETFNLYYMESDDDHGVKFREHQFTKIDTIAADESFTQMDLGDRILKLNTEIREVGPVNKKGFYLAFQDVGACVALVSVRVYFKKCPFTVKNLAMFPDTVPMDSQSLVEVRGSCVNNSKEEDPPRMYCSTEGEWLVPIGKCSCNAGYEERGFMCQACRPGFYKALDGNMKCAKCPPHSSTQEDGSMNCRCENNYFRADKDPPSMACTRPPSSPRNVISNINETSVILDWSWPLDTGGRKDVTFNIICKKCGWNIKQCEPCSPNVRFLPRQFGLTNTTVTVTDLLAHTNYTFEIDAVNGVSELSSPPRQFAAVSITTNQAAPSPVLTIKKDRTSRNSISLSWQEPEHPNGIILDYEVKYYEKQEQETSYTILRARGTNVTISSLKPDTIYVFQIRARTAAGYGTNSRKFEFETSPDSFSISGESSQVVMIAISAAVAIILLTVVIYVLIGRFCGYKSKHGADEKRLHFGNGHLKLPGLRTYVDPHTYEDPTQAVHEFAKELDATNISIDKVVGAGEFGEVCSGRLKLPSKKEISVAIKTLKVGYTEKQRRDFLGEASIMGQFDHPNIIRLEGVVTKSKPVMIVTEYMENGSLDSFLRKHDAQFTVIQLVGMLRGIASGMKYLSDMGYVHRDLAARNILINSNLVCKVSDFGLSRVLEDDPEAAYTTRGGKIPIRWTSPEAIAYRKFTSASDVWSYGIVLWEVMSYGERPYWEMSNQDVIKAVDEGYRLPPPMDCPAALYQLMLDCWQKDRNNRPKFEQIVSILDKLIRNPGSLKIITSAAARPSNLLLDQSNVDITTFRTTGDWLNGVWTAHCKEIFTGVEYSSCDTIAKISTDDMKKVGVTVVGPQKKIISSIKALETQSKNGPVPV
In words: Inhibition of Hek.

The target of data set [1] is Tyrosine-protein kinase Lyn (Homo sapiens, UniProt P07948). In words: Inhibition of Lyn.
The target in data set [2] is Platelet-derived growth factor receptor alpha (Homo sapiens, UniProt P16234). In words: Inhibition of PDGFRalpha.
For data set [3], the target named is Vascular endothelial growth factor receptor 1 (Homo sapiens, UniProt P17948). The experiment in a line: Inhibition of VEGFR1.
A further data set has as its system Blood. The experiment in a line: Inhibition of LPS-induced TNFalpha production in human whole blood. Type of data set: functional, tissue-based.
The subject of another data set is Mus musculus. In words: Inhibition of LPS-induced TNFalpha production in mouse at 30 mg/kg, po administered 60 mins before LPS challenge. Type of data set: functional.
The nature of data set [4]: Plasma concentration in mouse at 100 mg/kg, po after 120 mins. The format is ADME, organism-based. Also noted: dose 100 mg/kg, route oral.
Data set [5] deals with Mitogen-activated protein kinase 14 (Homo sapiens) (UniProt Q16539). The experiment in a line: Inhibition of p38alpha at 10 uM.
For data set [6], the target named is T2, Mitogen-activated protein kinase 12 (Homo sapiens) (UniProt P53778).
T2 sequence (whole entry): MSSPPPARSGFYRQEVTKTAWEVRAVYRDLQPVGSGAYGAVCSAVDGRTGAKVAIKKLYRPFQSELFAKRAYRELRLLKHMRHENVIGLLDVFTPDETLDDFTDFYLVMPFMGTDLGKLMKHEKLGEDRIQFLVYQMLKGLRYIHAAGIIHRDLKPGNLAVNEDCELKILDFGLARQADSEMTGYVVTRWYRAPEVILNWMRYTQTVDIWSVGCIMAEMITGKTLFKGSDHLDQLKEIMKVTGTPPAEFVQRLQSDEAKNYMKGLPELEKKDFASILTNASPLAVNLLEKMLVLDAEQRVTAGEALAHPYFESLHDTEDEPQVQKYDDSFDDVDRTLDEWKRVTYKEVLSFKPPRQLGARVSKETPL
The experiment in a line: Inhibition of p38-gamma at 10 uM.

The target of data set [7] is Ribosomal protein S6 kinase alpha-5 (Homo sapiens) (UniProt O75582). The experiment in a line: Inhibition of MSK1 at 10 uM.
The target in data set [8] is T3, MAP kinase-activated protein kinase 5 (Homo sapiens) (UniProt Q8IW41).
T3 sequence (whole entry): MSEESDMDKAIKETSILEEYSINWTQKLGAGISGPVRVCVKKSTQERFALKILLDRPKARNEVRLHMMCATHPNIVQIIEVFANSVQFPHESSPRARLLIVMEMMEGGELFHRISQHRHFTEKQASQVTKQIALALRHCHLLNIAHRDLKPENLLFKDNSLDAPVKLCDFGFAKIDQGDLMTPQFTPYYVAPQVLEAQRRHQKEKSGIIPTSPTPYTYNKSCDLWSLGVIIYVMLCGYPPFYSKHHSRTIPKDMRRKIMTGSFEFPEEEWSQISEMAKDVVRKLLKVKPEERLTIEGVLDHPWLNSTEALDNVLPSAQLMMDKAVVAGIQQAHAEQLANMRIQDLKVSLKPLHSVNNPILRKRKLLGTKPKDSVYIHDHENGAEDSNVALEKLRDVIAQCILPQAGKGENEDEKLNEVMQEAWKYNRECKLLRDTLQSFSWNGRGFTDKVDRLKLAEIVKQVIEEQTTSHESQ
In words: Inhibition of PRAK at 10 uM.

Data set [9] can be described thus: Inhibition of PH domain deficient PKBdelta at 10 uM.
Data set [10] concerns the target Rho-associated protein kinase 2 (Homo sapiens) (UniProt O75116). The experiment in a line: Inhibition of ROCK-2 at 10 uM.
For data set [11], the target named is T4, Serine/threonine-protein kinase Chk1 (Homo sapiens) (UniProt O14757).
T4 sequence (whole entry): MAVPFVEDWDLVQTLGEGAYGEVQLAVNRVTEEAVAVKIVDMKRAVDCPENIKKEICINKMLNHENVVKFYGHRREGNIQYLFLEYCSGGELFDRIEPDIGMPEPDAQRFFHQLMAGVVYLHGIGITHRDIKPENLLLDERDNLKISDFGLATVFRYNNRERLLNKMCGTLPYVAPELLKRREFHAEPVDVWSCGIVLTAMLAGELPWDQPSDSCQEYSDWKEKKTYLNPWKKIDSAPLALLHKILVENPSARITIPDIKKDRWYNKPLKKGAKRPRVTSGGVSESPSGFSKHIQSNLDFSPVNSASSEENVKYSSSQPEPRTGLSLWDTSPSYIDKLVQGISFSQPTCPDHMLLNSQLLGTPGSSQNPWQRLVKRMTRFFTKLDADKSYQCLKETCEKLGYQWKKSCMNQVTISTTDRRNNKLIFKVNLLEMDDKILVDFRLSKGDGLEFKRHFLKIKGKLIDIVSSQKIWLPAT
In words: Inhibition of CHK1 at 10 uM.

Data set [12] is described as follows: Inhibition of PHOS Kinase at 10 uM.
Data set [13] addresses Cyclin-dependent kinase 2/cyclin A (Homo sapiens) (UniProt P24941+P20248+P78396). The experiment in a line: Inhibition of CDK2/cyclin A at 10 uM. Type of data set: protein-complex assay.
Data set [14] concerns the target Dual specificity tyrosine-phosphorylation-regulated kinase 1A (Homo sapiens) (UniProt Q13627). The experiment in a line: Inhibition of DYRK1a at 10 uM.

Active and inactive are the calls of the source. The rule behind the calls is not given here.

Sequence of Rho-associated protein kinase 2 (Homo sapiens) (O75116 whole entry, looked up): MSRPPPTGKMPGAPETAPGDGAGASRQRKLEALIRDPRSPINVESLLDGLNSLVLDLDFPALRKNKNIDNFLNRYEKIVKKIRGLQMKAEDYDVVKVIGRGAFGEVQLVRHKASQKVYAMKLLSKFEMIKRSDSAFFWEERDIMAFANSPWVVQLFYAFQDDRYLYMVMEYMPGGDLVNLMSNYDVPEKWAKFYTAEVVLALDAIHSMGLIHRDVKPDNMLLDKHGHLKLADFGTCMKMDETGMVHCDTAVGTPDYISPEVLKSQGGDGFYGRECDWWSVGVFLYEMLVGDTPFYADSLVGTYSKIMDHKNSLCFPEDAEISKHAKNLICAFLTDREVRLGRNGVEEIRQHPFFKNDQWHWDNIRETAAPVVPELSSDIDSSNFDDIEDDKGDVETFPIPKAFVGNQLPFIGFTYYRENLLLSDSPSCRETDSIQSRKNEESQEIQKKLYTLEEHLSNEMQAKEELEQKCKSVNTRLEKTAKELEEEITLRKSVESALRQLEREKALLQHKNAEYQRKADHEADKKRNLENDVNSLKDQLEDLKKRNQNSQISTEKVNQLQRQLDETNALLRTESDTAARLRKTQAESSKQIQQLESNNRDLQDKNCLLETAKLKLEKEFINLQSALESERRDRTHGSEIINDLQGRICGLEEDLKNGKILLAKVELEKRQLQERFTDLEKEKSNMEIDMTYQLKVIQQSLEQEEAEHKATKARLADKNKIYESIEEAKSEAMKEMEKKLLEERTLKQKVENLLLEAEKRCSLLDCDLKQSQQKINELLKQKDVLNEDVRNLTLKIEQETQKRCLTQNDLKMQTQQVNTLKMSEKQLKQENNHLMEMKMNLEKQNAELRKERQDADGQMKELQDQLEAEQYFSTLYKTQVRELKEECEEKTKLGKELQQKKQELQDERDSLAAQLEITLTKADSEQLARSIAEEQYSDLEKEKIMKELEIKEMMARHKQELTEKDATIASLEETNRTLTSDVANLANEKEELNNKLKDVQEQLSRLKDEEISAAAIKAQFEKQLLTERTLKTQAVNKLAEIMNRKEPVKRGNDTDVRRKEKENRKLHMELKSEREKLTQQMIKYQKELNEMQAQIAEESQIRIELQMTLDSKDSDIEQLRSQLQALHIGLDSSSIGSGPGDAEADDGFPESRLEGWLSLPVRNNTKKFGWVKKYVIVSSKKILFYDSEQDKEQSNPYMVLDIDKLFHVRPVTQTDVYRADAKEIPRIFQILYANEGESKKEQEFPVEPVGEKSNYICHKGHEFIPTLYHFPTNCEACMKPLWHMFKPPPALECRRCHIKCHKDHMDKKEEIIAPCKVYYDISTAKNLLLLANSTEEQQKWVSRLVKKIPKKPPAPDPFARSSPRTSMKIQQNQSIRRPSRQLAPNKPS
Sequence of Platelet-derived growth factor receptor alpha (P16234 whole entry): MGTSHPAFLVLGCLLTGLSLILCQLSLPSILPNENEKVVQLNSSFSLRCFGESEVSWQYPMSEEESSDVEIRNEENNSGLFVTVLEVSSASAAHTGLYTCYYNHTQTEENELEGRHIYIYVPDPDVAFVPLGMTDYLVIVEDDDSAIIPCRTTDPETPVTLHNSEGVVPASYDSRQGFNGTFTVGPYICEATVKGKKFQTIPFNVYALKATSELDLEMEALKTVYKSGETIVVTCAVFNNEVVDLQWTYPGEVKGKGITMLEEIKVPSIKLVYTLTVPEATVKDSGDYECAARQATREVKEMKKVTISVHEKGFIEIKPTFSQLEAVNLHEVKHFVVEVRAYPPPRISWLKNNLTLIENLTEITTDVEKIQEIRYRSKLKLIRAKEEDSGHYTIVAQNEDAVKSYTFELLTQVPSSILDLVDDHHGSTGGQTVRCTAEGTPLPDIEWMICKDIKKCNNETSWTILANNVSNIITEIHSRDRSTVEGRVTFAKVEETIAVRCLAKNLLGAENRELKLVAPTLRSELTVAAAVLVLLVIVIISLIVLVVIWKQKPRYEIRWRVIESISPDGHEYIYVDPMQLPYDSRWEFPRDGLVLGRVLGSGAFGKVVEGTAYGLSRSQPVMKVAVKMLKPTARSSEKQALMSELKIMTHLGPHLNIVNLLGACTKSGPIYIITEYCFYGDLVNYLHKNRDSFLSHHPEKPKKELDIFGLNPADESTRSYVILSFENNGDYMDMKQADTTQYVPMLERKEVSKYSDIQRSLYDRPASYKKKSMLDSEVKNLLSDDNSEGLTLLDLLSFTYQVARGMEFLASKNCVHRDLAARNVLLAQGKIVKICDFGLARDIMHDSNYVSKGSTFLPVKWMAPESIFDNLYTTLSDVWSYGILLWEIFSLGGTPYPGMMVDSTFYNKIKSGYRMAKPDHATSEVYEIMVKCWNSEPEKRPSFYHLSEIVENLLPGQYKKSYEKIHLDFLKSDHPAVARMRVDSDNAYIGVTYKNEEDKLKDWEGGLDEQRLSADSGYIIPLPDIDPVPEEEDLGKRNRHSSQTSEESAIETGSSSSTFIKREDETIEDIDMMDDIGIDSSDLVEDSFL
Sequence of Ribosomal protein S6 kinase alpha-5 (Homo sapiens) (O75582 whole entry, looked up): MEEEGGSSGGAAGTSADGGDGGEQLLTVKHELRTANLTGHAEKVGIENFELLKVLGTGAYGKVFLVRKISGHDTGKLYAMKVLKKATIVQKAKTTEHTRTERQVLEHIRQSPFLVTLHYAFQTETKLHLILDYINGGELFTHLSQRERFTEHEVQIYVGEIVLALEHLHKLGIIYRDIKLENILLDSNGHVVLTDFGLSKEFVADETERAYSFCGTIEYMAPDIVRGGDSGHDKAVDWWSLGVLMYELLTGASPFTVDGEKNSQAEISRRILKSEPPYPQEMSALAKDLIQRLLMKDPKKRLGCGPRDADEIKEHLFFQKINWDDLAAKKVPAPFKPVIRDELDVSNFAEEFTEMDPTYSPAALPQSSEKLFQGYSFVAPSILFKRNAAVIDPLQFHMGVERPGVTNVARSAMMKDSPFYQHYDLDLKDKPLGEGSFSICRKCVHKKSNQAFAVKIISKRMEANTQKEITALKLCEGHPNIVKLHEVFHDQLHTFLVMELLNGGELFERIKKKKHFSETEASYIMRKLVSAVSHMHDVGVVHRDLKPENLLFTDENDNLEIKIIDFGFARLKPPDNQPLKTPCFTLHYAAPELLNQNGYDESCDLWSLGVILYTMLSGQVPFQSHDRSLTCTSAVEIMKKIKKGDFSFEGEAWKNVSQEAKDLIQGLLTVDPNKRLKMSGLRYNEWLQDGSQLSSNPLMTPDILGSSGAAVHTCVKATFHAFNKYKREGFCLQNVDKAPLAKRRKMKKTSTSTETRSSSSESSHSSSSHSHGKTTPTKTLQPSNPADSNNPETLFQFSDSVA
Sequence of Vascular endothelial growth factor receptor 1 (P17948 whole entry): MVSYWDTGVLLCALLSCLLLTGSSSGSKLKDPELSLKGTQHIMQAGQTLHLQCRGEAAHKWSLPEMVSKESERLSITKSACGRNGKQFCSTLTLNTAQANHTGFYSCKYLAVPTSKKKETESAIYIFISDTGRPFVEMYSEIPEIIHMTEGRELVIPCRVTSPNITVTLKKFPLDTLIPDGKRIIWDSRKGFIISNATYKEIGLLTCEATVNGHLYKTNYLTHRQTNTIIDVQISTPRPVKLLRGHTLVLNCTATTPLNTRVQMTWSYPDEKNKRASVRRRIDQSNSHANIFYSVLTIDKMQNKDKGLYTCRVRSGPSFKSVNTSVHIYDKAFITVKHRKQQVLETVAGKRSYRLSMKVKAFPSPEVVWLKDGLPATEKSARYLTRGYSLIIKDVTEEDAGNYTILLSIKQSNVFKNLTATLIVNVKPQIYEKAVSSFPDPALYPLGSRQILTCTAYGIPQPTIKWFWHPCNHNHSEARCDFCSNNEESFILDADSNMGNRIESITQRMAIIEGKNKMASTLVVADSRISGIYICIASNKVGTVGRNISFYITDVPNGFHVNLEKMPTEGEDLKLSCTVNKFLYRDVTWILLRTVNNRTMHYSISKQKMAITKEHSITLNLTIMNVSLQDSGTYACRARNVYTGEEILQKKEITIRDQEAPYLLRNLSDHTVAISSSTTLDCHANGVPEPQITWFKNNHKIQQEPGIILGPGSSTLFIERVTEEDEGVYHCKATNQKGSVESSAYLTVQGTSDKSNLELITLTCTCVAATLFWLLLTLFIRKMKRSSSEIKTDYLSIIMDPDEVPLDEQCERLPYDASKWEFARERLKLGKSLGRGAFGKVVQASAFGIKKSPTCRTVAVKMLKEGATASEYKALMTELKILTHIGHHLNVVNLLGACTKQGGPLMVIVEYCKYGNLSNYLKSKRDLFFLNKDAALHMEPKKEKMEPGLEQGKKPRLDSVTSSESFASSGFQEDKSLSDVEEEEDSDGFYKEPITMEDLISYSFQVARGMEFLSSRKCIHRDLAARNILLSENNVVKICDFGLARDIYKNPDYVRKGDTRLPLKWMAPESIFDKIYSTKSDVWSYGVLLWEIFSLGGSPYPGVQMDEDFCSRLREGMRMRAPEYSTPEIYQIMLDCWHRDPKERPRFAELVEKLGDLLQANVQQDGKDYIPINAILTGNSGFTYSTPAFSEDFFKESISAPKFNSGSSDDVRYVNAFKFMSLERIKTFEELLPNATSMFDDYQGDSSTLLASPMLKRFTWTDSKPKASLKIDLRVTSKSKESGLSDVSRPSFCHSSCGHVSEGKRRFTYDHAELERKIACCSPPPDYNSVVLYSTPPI
Sequence of Tyrosine-protein kinase Lyn (P07948 whole entry): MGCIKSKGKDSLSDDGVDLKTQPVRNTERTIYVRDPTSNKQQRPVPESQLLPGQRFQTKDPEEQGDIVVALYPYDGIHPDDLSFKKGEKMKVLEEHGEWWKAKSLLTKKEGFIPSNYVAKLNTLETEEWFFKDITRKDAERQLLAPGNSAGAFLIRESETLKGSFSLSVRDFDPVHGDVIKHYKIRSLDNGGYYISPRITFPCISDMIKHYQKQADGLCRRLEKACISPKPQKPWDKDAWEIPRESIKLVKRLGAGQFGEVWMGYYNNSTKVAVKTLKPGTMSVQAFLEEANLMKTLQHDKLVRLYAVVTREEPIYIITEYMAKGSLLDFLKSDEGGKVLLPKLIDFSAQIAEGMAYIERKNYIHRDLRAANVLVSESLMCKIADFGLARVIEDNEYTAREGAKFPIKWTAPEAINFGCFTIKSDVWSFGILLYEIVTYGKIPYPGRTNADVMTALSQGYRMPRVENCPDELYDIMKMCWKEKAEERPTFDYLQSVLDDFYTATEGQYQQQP

Usually IC50 stands for the concentration that gives 50% inhibition. What is called inhibition in vivo is the drop in the measured response relative to a control, in per cent. A high value points to strong suppression. As to `CCCc1cc(N2CCNCC2)nc2sc(C(N)=O)c(N)c12`, the IC50 against Ephrin type-A receptor 3 is 8 µM; in data set [1], over 7 µM; in [2], 0.3 µM; in data set [3] it was over 7 µM; in the data set on Blood, 3.2 µM. In addition, 30 mg/kg produced 35% inhibition in vivo with Mus musculus. Besides, in data set [4], the concentration at 2 h amounted to 3.5 µM. For the same molecule, the outcome in [5], in data set [6], in data set [7], in data set [8], in data set [9] and in [10] was inactive. The outcome in data set [11], in data set [12], in [13] and in data set [14] was inactive.

`CCCc1cc(N2CCCC(O)C2)nc2sc(C(N)=O)c(N)c12` (stereo not drawn): the IC50 was over 7 µM against Ephrin type-A receptor 3; over 7 µM in data set [1]; over 7 µM in data set [2]; over 7 µM in data set [3]; 13 µM with Blood. Moreover, in the data set with Mus musculus, the inhibition in vivo at 30 mg/kg was determined as 67%. The concentration at 2 h in data set [4] came to 22.5 µM. The result in data set [5], in data set [6], in [7], in data set [8], in [9] and in [10] was inactive. Further, the result in [11], in data set [12], in data set [13] and in [14] was inactive.

In the case of `CCCc1cc(N2CCC(N)CC2)nc2sc(C(N)=O)c(N)c12`, the half-inhibitory concentration (IC50) on Ephrin type-A receptor 3 is 7 µM; in [1], over 7 µM; in data set [2] it was over 7 µM; in [3], over 7 µM; with Blood, 1.6 µM. The inhibition in vivo at 30 mg/kg in the data set on Mus musculus was found to be 14%. The concentration at 2 h in [4] was found to be 2.8 µM. Moreover, the outcome in data set [5], in data set [6], in data set [7], in data set [8], in data set [9] and in data set [10] was inactive. The outcome in data set [11], in [12], in [13] and in data set [14] was inactive.

Turning to `CCCc1cc(N2CCC(O)CC2)nc2sc(C(N)=O)c(N)c12`, the IC50 was 9 µM at Ephrin type-A receptor 3; over 7 µM in data set [1]; over 7 µM in data set [2]; over 7 µM in data set [3]; 9.8 µM with Blood. Also, the inhibition in vivo at 30 mg/kg in the data set on Mus musculus worked out at 94%. This molecule also registered a concentration at 2 h in data set [4] of 42.3 µM. Further, the outcome in data set [5], in data set [6], in data set [7], in data set [8], in data set [9] and in data set [10] was inactive. Moreover, the outcome in data set [11], in [12], in data set [13] and in data set [14] was inactive.
